According to US20110230481A2, “DERIVATIVES OF TETRABROMOBENZIMIDAZOLE, A PROCESS FOR THE PREPARATION THEREOF, A PHARMACEUTICAL COMPOSITION COMPRISING THE SAME, A METHOD OF USING THE SAME, A METHOD FOR MODULATING OR REGULATING SERINE/THREONINE KINASES, AND SERINE/THREONINE KINASES MODULATING AGENT” (SELVITA S.A., priority 2009, published 2011):

How the values were obtained:
Test in all cases: KINOMEscan Max
Type in all cases: binding
PDGFRB = PDGFRB (Homo sapiens, UniProt P09619)
Outline: (§1)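 Immobilized active-site directed ligand captures DNA-tagged kinase unless test compound competes it off; captured kinase is then quantified by qPCR of the DNA tag.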

ROCK2 = molecular target: T1, ROCK2 (Homo sapiens, UniProt O75116)
T1 construct: purchased Ambit (KINOMEscan Max service)
Outline: as §1

DYRK1B = molecular target: T2, DYRK1B (Homo sapiens, UniProt Q9Y463)
T2 construct: DNA tag (qPCR read-out); purchased Ambit Kinomescan
Outline: as §1

RET = molecular target: T3, RET (Homo sapiens, UniProt P07949)
T3 construct: DNA tag (qPCR read-out)
Outline: as §1

[1] = molecular target: T4, ABL1(F317L)-nonphosphorylated (Homo sapiens, UniProt P00519, F317L)
T4 construct: purchased Ambit (KINOMEscan Max service)
Outline: as §1

BMX = molecular target: T5, BMX (Homo sapiens, UniProt P51813)
T5 construct: DNA tag (qPCR read-out)
T5 sequence (P51813 whole entry): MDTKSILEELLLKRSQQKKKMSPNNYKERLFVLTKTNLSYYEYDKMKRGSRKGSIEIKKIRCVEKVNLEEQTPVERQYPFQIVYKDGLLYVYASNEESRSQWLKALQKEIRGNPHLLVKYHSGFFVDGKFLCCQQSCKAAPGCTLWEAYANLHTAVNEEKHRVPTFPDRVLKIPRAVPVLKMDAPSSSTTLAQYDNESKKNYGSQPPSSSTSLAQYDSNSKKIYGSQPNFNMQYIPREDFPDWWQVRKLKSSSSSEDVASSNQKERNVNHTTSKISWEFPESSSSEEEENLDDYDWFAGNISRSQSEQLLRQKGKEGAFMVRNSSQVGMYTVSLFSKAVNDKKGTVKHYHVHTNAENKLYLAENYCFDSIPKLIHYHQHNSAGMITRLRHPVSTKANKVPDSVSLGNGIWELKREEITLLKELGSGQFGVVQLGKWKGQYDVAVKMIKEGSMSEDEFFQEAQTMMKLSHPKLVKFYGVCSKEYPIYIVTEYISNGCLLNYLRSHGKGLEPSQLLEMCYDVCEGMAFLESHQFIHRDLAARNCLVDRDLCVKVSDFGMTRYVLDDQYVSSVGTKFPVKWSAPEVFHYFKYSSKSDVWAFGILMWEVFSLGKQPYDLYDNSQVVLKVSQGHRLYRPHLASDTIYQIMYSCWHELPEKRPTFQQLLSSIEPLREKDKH
Outline: as §1

DAPK2 = molecular target: T6, DAPK2 (Homo sapiens, UniProt Q9UIK4)
T6 construct: DNA tag (qPCR read-out)
T6 sequence (Q9UIK4 whole entry): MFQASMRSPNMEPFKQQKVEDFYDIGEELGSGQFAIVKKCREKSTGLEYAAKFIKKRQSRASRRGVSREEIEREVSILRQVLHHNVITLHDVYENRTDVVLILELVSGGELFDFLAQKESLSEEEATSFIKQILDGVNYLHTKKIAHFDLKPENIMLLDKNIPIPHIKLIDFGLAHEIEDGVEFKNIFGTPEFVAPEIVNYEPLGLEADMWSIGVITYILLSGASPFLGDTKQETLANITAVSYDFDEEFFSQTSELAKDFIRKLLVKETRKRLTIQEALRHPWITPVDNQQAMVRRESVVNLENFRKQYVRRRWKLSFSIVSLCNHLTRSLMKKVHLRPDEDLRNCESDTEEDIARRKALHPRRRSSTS
Outline: as §1

[2] = molecular target: T7, RSK2(Kin.Dom.1-N-terminal) (Homo sapiens, UniProt P51812)
T7 construct: RSK2(Kin.Dom.1-N-terminal); DNA tag (qPCR read-out)
T7 sequence (P51812 68-327 limits assumed): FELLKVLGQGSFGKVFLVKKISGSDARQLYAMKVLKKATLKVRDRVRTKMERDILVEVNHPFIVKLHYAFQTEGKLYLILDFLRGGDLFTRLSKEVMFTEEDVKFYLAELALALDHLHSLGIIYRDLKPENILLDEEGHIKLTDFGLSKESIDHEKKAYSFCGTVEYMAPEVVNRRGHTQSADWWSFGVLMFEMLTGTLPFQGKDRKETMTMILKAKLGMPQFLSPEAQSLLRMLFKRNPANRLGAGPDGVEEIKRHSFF
Outline: as §1

NEK3 = NEK3 (Homo sapiens, UniProt P51956)
Outline: as §1

PIK3CA = molecular target: T8, PIK3CA (Homo sapiens, UniProt P42336)
T8 construct: DNA tag (qPCR read-out)
Outline: as §1

SRPK1 = molecular target: T9, SRPK1 (Homo sapiens, UniProt Q96SB4)
T9 construct: purchased Ambit (KINOMEscan Max service)
Outline: as §1

MKNK2 = molecular target: T10, MKNK2 (Homo sapiens, UniProt Q9HBH9)
T10 construct: DNA tag (qPCR read-out)
Outline: as §1

BLK = BLK (Homo sapiens, UniProt P51451)
Outline: as §1

MST4 = molecular target: T11, MST4 (Homo sapiens, UniProt Q9P289)
T11 construct: DNA tag (qPCR read-out)
T11 sequence (Q9P289 whole entry): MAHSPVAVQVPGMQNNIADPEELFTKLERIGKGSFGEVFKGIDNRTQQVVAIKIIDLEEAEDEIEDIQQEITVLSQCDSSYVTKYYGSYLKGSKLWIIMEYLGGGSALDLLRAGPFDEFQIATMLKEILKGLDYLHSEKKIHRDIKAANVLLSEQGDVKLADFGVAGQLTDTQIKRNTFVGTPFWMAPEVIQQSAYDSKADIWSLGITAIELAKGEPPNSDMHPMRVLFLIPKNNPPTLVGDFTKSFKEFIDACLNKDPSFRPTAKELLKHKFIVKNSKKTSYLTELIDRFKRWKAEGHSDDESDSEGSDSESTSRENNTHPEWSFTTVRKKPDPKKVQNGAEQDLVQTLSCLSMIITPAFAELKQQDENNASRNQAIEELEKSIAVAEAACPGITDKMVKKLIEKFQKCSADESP
Outline: as §1

PLK3 = molecular target: T12, PLK3 (Homo sapiens, UniProt Q9H4B4)
T12 construct: purchased Ambit (KINOMEscan Max service)
T12 sequence (Q9H4B4 whole entry): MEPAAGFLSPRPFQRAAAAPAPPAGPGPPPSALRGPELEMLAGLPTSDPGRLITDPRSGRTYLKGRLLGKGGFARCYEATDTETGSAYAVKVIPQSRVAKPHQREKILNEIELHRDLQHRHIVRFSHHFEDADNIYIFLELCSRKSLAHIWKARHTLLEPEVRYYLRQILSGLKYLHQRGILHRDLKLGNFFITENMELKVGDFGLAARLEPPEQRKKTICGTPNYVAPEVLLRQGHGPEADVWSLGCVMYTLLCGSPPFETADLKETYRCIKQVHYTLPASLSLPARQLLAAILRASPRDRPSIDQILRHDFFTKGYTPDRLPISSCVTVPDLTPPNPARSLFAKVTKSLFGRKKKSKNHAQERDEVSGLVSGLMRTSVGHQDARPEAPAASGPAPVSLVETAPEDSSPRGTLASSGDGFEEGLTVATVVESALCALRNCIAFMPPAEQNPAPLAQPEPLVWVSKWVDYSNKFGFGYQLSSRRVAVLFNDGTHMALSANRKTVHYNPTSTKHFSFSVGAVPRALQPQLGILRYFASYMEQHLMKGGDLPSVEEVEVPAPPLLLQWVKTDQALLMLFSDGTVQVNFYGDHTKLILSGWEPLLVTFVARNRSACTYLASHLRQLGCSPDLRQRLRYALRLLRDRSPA
Outline: as §1

PRKD3 = molecular target: T13, PRKD3 (Homo sapiens, UniProt O94806)
T13 construct: DNA tag (qPCR read-out)
T13 sequence (O94806 whole entry): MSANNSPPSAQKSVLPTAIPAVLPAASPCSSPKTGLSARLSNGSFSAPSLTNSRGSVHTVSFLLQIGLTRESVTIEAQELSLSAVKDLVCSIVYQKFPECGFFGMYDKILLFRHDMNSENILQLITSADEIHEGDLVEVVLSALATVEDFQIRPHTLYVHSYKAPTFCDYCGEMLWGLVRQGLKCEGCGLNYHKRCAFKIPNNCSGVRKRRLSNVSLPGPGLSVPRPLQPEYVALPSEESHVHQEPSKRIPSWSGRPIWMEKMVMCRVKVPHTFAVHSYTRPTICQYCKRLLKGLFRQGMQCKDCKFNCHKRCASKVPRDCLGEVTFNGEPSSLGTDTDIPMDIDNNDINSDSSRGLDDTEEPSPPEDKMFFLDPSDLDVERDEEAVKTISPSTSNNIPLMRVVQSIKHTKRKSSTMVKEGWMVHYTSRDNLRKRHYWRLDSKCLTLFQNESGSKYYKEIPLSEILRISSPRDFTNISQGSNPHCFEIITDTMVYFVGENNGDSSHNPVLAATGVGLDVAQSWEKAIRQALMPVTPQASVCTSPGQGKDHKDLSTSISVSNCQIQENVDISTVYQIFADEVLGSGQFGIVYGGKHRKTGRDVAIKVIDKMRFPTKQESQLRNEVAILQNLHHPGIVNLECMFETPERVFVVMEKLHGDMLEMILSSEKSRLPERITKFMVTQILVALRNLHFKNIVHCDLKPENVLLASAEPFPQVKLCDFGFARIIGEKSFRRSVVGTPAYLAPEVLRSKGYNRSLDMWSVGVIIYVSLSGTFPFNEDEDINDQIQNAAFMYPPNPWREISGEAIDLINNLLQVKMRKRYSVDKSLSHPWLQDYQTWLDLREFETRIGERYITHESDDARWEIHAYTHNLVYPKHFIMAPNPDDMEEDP
Outline: as §1

[3] = molecular target: ABL1(F317I)-phosphorylated (Homo sapiens, UniProt P00519, F317I)
Outline: as §1

FLT3(K663Q) = molecular target: T14, FLT3(K663Q) (Homo sapiens, UniProt P36888, K663Q)
T14 construct: purchased Ambit Kinomescan (contract screening)
Outline: as §1

[4] = molecular target: ABL1(Q252H)-nonphosphorylated (Homo sapiens, UniProt P00519, Q252H)
Outline: as §1

GCN2(Kin.Dom.S808G) = molecular target: T15, GCN2(Kin.Dom.S808G) (Homo sapiens, UniProt Q9P2K8, S808G)
T15 construct: GCN2(Kin.Dom.S808G)
T15 sequence (Q9P2K8 590-1001 S808G limits assumed): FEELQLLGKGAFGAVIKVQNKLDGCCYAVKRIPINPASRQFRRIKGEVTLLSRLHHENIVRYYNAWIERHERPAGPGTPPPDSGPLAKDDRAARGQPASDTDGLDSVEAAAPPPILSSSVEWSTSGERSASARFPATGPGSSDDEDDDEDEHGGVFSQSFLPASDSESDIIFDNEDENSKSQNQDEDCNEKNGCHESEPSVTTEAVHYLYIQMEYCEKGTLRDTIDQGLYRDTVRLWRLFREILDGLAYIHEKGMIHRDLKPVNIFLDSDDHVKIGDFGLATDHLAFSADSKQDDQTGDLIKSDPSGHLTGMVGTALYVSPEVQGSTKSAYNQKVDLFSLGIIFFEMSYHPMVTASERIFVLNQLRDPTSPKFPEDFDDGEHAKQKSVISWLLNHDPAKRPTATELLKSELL
Outline: as §1

CHEK1 = molecular target: T16, CHEK1 (Homo sapiens, UniProt O14757); conditions: 1 μM
T16 construct: DNA tag (qPCR read-out)
Outline: as §1

GRK7 = molecular target: T17, GRK7 (Homo sapiens, UniProt Q8WTQ7)
T17 construct: purchased Ambit Kinomescan (contract panel, KINOMEscan Max)
Outline: as §1

SLK = SLK (Homo sapiens, UniProt Q9H2G2)
Outline: as §1

ACVR1 = ACVR1 (Homo sapiens, UniProt Q04771)
ACVR1, sequence (Q04771 21-509): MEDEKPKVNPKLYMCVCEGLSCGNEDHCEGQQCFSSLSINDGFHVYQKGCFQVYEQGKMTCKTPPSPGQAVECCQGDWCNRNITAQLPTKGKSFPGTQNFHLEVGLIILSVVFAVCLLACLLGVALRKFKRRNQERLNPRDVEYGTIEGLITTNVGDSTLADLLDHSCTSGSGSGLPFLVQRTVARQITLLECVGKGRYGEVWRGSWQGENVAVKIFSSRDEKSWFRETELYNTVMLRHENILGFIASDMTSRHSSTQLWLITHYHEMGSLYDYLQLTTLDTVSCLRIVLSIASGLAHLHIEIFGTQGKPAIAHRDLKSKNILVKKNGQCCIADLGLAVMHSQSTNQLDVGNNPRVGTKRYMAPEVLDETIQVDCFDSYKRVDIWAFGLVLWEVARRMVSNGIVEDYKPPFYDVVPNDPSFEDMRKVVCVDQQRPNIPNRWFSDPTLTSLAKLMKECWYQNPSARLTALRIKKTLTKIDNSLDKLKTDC
Outline: as §1

[5] = molecular target: T18, JAK3(JH1domain-catalytic) (Homo sapiens, UniProt P52333)
T18 construct: JAK3(JH1domain-catalytic); purchased Ambit Kinomescan (contract panel)
Outline: as §1

CAMKK2 = molecular target: T19, CAMKK2 (Homo sapiens, UniProt Q96RR4)
T19 construct: DNA tag (qPCR label); purchased Ambit Kinomescan (contract screening)
Outline: as §1

GRK4 = molecular target: T20, GRK4 (Homo sapiens, UniProt P32298)
T20 construct: purchased Ambit Kinomescan (contract panel, KINOMEscan Max)
T20 sequence (P32298 whole entry): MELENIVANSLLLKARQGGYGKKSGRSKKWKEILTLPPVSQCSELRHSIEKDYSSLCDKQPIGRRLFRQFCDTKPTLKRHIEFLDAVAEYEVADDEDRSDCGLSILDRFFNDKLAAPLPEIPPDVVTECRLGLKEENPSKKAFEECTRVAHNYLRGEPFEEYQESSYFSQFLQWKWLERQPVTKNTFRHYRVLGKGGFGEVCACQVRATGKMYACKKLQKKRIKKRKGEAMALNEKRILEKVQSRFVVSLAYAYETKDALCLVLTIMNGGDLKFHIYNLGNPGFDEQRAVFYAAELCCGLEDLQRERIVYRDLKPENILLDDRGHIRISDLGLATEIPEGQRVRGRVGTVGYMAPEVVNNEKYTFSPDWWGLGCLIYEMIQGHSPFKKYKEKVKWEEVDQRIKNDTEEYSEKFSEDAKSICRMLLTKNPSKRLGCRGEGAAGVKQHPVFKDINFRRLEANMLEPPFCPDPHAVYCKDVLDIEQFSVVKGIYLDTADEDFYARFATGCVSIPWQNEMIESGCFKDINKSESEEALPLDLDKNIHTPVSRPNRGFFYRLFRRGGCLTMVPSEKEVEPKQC
Outline: as §1

PYK2 = molecular target: T21, PYK2 (Homo sapiens, UniProt Q14289)
T21 construct: DNA tag (qPCR read-out)
Outline: as §1

CSNK1A1L = CSNK1A1L (Homo sapiens, UniProt Q8N752)
Outline: as §1

PRKCQ = PRKCQ (Homo sapiens, UniProt Q04759)
Outline: as §1

ITK = molecular target: T22, ITK (Homo sapiens, UniProt Q08881); conditions: 1 μM
T22 construct: purchased Ambit Kinomescan (contract panel)
Outline: as §1

NEK1 = NEK1 (Homo sapiens, UniProt Q96PY6)
Outline: as §1

ZAP70 = molecular target: T23, ZAP70 (Homo sapiens, UniProt P43403)
T23 construct: purchased Ambit Kinomescan (contract screening service)
Outline: as §1

NCCCNc1nc2c(Br)c(Br)c(Br)c(Br)c2[nH]1 [Compound 11, N-(3-aminopropyl)-4,5,6,7-tetrabromo-1H-benzo[d]imidazol-2-amine]
remaining binding at 1 µM (PDGFRB): 80% | remaining binding at 1 µM (ROCK2): 71% | remaining binding at 1 µM (DYRK1B): 7.4% | remaining binding at 1 µM (RET): 100% | remaining binding at 1 µM [1]: 67% | remaining binding at 1 µM (BMX): 88% | remaining binding at 1 µM (DAPK2): 90% | remaining binding at 1 µM [2]: 100% | remaining binding at 1 µM (NEK3): 93% | remaining binding at 1 µM (PIK3CA): 100% | remaining binding at 1 µM (SRPK1): 67% | remaining binding at 1 µM (MKNK2): 35% | remaining binding at 1 µM (BLK): 96% | remaining binding at 1 µM (MST4): 87% | remaining binding at 1 µM (PLK3): 67% | remaining binding at 1 µM (PRKD3): 27% | remaining binding at 1 µM [3]: 100% | remaining binding at 1 µM (FLT3(K663Q)): 97% | remaining binding at 1 µM [4]: 95% | remaining binding at 1 µM (GCN2(Kin.Dom.S808G)): 95% | % binding (CHEK1): 88% | remaining binding at 1 µM (GRK7): 100% | remaining binding at 1 µM (SLK): 92% | remaining binding at 1 µM (ACVR1): 100% | remaining binding at 1 µM [5]: 100% | remaining binding at 1 µM (CAMKK2): 100% | remaining binding at 1 µM (GRK4): 100% | remaining binding at 1 µM (PYK2): 100% | remaining binding at 1 µM (CSNK1A1L): 76% | remaining binding at 1 µM (PRKCQ): 77% | % binding (ITK): 100% | remaining binding at 1 µM (NEK1): 100% | remaining binding at 1 µM (ZAP70): 100%
